Consider 67 compounds from US8916565B2, “Pyrrolopyrazine-spirocyclic piperidine amides as modulators of ion channels” (priority 2011, dated 2014).

A value given as a limit tells only on which side of the number the result lay.

Chain of human NaV subtype, like NaV 1.7 (Q15858 whole entry): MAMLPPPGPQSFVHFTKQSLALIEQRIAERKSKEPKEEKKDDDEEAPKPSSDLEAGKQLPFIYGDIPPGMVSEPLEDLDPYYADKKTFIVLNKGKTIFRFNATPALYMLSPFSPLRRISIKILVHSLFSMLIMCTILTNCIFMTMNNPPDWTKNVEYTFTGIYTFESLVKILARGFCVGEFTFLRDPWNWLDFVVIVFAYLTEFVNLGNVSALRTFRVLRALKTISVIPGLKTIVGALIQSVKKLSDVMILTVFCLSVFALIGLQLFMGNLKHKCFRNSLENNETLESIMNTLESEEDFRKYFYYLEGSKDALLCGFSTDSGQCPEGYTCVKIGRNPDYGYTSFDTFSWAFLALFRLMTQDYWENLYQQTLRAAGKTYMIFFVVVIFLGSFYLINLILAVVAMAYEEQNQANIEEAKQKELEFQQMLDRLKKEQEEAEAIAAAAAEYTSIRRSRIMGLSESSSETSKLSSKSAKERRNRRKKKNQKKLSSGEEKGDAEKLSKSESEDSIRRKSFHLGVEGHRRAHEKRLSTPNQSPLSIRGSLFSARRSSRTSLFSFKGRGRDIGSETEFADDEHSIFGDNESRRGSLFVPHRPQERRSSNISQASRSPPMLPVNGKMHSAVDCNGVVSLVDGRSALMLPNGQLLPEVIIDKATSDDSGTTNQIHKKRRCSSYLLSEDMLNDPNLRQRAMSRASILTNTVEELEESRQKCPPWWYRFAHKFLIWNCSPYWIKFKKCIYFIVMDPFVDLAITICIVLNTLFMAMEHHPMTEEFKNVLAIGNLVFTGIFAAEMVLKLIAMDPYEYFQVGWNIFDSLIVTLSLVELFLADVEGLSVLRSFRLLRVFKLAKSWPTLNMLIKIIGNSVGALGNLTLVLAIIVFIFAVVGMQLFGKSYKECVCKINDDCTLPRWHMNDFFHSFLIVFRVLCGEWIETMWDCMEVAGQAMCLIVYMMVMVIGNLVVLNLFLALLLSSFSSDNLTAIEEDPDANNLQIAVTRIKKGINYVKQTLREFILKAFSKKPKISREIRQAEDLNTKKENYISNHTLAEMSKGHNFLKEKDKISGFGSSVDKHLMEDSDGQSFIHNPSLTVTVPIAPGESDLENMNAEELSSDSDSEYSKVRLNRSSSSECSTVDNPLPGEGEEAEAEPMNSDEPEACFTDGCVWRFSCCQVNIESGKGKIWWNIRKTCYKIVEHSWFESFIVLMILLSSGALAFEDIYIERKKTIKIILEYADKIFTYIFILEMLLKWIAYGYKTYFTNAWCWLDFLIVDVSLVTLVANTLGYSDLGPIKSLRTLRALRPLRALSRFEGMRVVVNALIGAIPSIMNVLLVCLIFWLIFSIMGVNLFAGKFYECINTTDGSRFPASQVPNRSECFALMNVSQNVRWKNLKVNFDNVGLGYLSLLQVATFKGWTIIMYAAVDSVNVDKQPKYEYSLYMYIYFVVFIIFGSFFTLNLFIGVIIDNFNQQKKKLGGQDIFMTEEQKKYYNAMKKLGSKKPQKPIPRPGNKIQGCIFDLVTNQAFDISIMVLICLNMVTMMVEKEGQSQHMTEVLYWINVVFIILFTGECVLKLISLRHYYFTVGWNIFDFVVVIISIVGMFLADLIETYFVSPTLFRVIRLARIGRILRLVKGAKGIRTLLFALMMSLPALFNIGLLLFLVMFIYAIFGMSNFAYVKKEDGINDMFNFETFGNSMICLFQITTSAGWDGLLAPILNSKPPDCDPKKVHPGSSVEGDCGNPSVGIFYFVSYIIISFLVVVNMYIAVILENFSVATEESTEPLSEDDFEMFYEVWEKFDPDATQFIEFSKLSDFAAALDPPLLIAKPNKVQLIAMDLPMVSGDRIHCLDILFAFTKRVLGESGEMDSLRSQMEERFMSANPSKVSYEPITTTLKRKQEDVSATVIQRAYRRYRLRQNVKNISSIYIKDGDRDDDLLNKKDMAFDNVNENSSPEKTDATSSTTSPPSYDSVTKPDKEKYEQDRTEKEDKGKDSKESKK

The assay addresses human NaV subtype, like NaV 1.7 (Homo sapiens, UniProt Q15858). Briefly: E-VIPR optical membrane potential assay with electrical stimulation. The settings on record: active against one or more sodium channels; Table 3 does not name the assay or NaV subtype; read-out: Binned Activity Data (IC50). In kind it is cell-based.
Consider `CCC(=O)c1ccc2n1CCN(C)C21CCN(C(=O)c2ccc(C(C)(C)O)c(C)c2)CC1` [Compound 591], for which the IC50 is not above 2000 nM.

As to `CCCCOc1ccc(C(=O)N2CCC3(CC2)c2ccc(C(=O)C(F)(F)F)n2CCN3C)cc1` [Compound 592], the IC50 is not above 2000 nM.

With `Cc1cc(C(=O)N2CCC3(CC2)c2ccc(CC(F)(F)F)n2CCN3C)ccc1C(C)(C)O` [Compound 593], the IC50 was not above 2000 nM.

Consider `COc1cc(C(=O)N2CCC3(CC2)NCCn2c(C(F)(F)F)ccc23)ccc1O` [Compound 594], for which the IC50 was more than 5000 nM.

For the compound `COc1ccc(C(=O)N2CCC3(CC2)NCC(C)n2c(C(=O)C(F)(F)F)ccc23)cc1C` (stereo not shown) [Compound 595], the IC50 was not above 2000 nM.

Take `COc1ccc(C(=O)N2CCC3(CC2)c2ccc(C(=O)C(F)(F)F)n2C(C)(C)CN3C)cc1C(F)(F)F` [Compound 596]: the IC50 was more than 5000 nM.

On to `Cc1ccc(C(=O)N2CCC3(CC2)c2ccc(C(=O)C(F)(F)F)n2CCN3C)cc1O` [Compound 597], for which the IC50 is more than 5000 nM.

Regarding `Cc1cc(C(=O)N2CCC3(CC2)NC(C)(C)Cn2c(C(F)(F)F)ccc23)ccc1OC(C)C` [Compound 598], the IC50 was not above 2000 nM.

On to `CC(C)Oc1ccc(C(=O)N2CCC3(CC2)c2ccc(Cl)n2CCN3C)cc1C(F)(F)F` [Compound 599], for which the half-inhibitory concentration (IC50) was not above 2000 nM.

On to `CC1CCN(S(=O)(=O)c2ccc(C(=O)N3CCC4(CC3)c3ccc(C(=O)C(F)(F)F)n3CCN4C)cc2)CC1` [Compound 600], for which the IC50 was not above 2000 nM.

With `Cc1cc(C(=O)N2CCC3(CC2)c2ccc(C(=O)C(C)(C)C)n2CCN3C)ccc1O` [Compound 601], the IC50 was not above 2000 nM.

Take `CC(C)Oc1ccc(C(=O)N2CCC3(CC2)c2c(Cl)cc(C(F)(F)F)n2CCN3C)c(F)c1` [Compound 602]: the concentration for half-maximal inhibition (IC50) is not above 2000 nM.

As to `O=C(c1ccccc1-c1ccccc1)N1CCC2(CC1)NCCn1c(C(F)(F)F)ccc12` [Compound 603], the IC50 is more than 5000 nM.

As to `CC(=O)c1ccc2n1CCN(C)C21CCN(C(=O)c2ccc(OCc3ccccc3)cc2)CC1` [Compound 604], the half-maximal inhibitory concentration (IC50) is not above 2000 nM.

Turning to `COc1ncc(F)cc1C(=O)N1CCC2(CC1)c1ccc(C(F)(F)F)n1CCN2C` [Compound 605], the IC50 was more than 5000 nM.

As to `CCCOc1cc(C(=O)N2CCC3(CC2)c2ccc(C(C)=O)n2CCN3C)ccc1OC` [Compound 606], the 50% inhibitory concentration (IC50) was more than 5000 nM.

As for `CCC(=O)c1ccc2n1CCN(C)C21CCN(C(=O)c2ccc(OC(C)C)c(OC)c2)CC1` [Compound 607], the IC50 lay in the range of 2000 to 5000 nM.

On to `COc1ccc(C(=O)N2CCC3(CC2)c2ccc(C(=O)C(F)(F)F)n2C[C@H](C)N3C)cc1Cl` [Compound 608], for which the IC50 is not above 2000 nM.

Regarding `CC[C@H](C)Oc1ccc(C(=O)N2CCC3(CC2)c2ccc(C(C)=O)n2CCN3C)cc1OC` [Compound 609], the 50% inhibitory concentration (IC50) fell in the range of 2000 to 5000 nM.

Take `CC(=O)c1ccc2n1CC(C)(C)NC21CCN(C(=O)c2ccc(OC(C)C)c(C(F)(F)F)c2)CC1` [Compound 610]: the IC50 was not above 2000 nM.

In the case of `CC(C)CCOc1ccc(C(=O)N2CCC3(CC2)NCC(C)n2c(C(=O)C(F)(F)F)ccc23)nc1` (stereo not shown) [Compound 611], the IC50 is not above 2000 nM.

In the case of `COc1ccc(C(=O)N2CCC3(CC2)NC(C)(C)Cn2c(C(=O)C(F)(F)F)ccc23)cc1C` [Compound 612], the IC50 is not above 2000 nM.

`COc1ccc(C(=O)N2CCC3(CC2)NC(C)(C)Cn2c(C(C)=O)ccc23)cc1C` [Compound 613]: the IC50 is more than 5000 nM.

In the case of `COc1cc(C(=O)N2CC[C@@]3(C[C@@H]2C)c2ccc(C(F)(F)F)n2CCN3C)ccc1OC(C)C` [Compound 614], the half-maximal inhibitory concentration (IC50) was more than 5000 nM.

Take `COCC#Cc1ccc(C(=O)N2CCC3(CC2)c2ccc(C(C)=O)n2CCN3C)cc1F` [Compound 615]: the IC50 was more than 5000 nM.

On to `CN1CCn2c(C(F)(F)F)cc(F)c2C12CCN(C(=O)c1ccc(C(C)(C)O)c(F)c1)CC2` [Compound 616], for which the IC50 was not above 2000 nM.

`CC(C)Oc1ccc(C(=O)N2CCC3(CC2)c2ccc(C(=O)C(C)(C)C)n2CCN3C)cc1C(F)(F)F` [Compound 617]: the IC50 was not above 2000 nM.

As to `CCOc1cc(C(=O)N2CCC3(CC2)NCCn2c(C(F)(F)F)ccc23)ccc1OC` [Compound 618], the IC50 is more than 5000 nM.

`CC(C)Oc1ccc(C(=O)N2CCC3(CC2)c2ccc(C(=O)C(C)(C)C)n2CCN3C)cc1F` [Compound 619]: the IC50 was not above 2000 nM.

Take `CC(C)C(=O)c1ccc2n1CCN(C)C21CCN(C(=O)c2ccc(O)c(Cl)c2)CC1` [Compound 620]: the IC50 lay in the range of 2000 to 5000 nM.

As for `Cc1cc(C(=O)N2CCC3(CC2)c2ccc(C(=O)C(F)(F)F)n2CCN3C)ccc1-c1cnc(N(C)C)nc1` [Compound 621], the IC50 is not above 2000 nM.

As to `COc1cc(C(=O)N2CCC3(CC2)c2ccc(C(=O)N4CCC(C(C)C)CC4)n2CCN3C)ccc1OC(C)C` [Compound 622], the half-maximal inhibitory concentration (IC50) lay within 2000 to 5000 nM.

With `CC(=O)c1ccc2n1CCN(C)C21CCN(C(=O)c2ccc(COCCC(F)(F)F)cc2)CC1` [Compound 623], the IC50 was not above 2000 nM.

Take `COc1ccc(C(=O)N2CCC3(CC2)c2ccc(Cl)n2CCN3C)cc1C(F)(F)F` [Compound 624]: the IC50 was in the range of 2000 to 5000 nM.

As for `CN1CCn2c(Cl)ccc2C12CCN(C(=O)c1ccc(C(C)(C)C)cc1)CC2` [Compound 625], the IC50 is more than 5000 nM.

As to `CN1CCn2c(Cl)ccc2C12CCN(C(=O)c1ccc(C3CCCCC3)cc1)CC2` [Compound 626], the IC50 was not above 2000 nM.

Regarding `CN1CCn2c(C(=O)C3CC3)ccc2C12CCN(C(=O)c1ccc(COCCC(F)(F)F)cc1)CC2` [Compound 627], the IC50 is not above 2000 nM.

`CCN(C)c1ccnc2c(C(=O)N3CCC4(CC3)c3ccc(C(F)(F)F)n3CCN4C)cnn12` [Compound 628]: the IC50 is not above 2000 nM.

For the compound `CCc1ccc(C(=O)N2CCC3(CC2)c2ccc(C(F)(F)F)n2CCN3C)cc1OC` [Compound 629], the IC50 was not above 2000 nM.

As to `Cc1cc(C(=O)N2CC[C@@]3(c4ccc(C(F)(F)F)n4CCN3C)[C@H](F)C2)ccc1C(C)(C)O` [Compound 630], the IC50 was not above 2000 nM.

Take `CN1CCn2c(C(O)C(F)(F)F)ccc2C12CCN(C(=O)c1ccc(C3CCCCC3)cc1)CC2` (stereo not shown) [Compound 631]: the IC50 was more than 5000 nM.

Turning to `Cc1cc(C(=O)N2CCC3(CC2)c2ccc(C(=O)c4ccccc4)n2CCN3C)ccc1O` [Compound 632], the IC50 is not above 2000 nM.

Take `COc1ccc(C(=O)N2CCC3(CC2)NC(C)(C)Cn2c(C(C)=O)ccc23)cc1C(F)(F)F` [Compound 633]: the IC50 was more than 5000 nM.

With `Cc1cc(C(=O)N2CCC3(CC2)c2ccc(C(F)(F)F)n2CCN3C(=O)N(C)C)ccc1C(C)(C)O` [Compound 634], the IC50 is more than 5000 nM.

As for `CN1CCn2c(C(=O)C(F)(F)F)ccc2C12CCN(C(=O)c1ccc(O)c(Cl)c1)CC2` [Compound 635], the IC50 lay in the range of 2000 to 5000 nM.

In the case of `CCOc1ccc(C(=O)N2CCC3(CC2)NC(C)(C)Cn2c(C(=O)C(F)(F)F)ccc23)cc1Cl` [Compound 636], the IC50 is not above 2000 nM.

Consider `CN1CCn2c(C(F)(F)F)ccc2C12CCN(C(=O)c1ccc(OCC(C)(C)O)cc1)CC2` [Compound 637], for which the IC50 is 2000 to 5000 nM.

For the compound `CN1CCn2c(C(=O)C(F)(F)F)ccc2C12CCN(C(=O)c1ccc(C3CCCCC3)cn1)CC2` [Compound 638], the IC50 was not above 2000 nM.

Take `CC(C)Oc1ccc(C(=O)N2CCC3(CC2)c2ccc(C(=O)C4CC4)n2CCN3C)cc1Cl` [Compound 639]: the IC50 was not above 2000 nM.

With `COCCOc1ccc(C(=O)N2CCC3(CC2)c2ccc(C(=O)C(F)(F)F)n2CCN3C)cc1OC` [Compound 640], the half-maximal inhibitory concentration (IC50) was in the range of 2000 to 5000 nM.

For the compound `CN1CCn2c(C(=O)C(C)(C)C)ccc2C12CCN(C(=O)c1ccc(O)c(Cl)c1)CC2` [Compound 641], the IC50 was not above 2000 nM.

Take `Cc1cc(C(=O)N2CC[C@@]3(c4ccc(C(F)(F)F)n4CCN3C)[C@H](F)C2)ccc1OC(C)C` [Compound 642]: the IC50 is not above 2000 nM.

On to `CC(=O)c1ccc2n1CC(C)(C)NC21CCN(C(=O)c2ccc(C3CCCCC3)cc2)CC1` [Compound 643], for which the concentration for half-maximal inhibition (IC50) is not above 2000 nM.

For `CN1CCn2c(C(=O)C3(C)CC3)ccc2C12CCN(C(=O)c1ccc(S(=O)(=O)C(F)(F)F)cc1)CC2` [Compound 644], the IC50 is not above 2000 nM.

In the case of `CN1CCn2c(C(=O)C(F)(F)F)ccc2C12CCN(C(=O)c1ccc(OC3CCOCC3)cc1)CC2` [Compound 645], the IC50 was not above 2000 nM.

Turning to `CC(C)CCOc1ccc(C(=O)N2CCC3(CC2)c2ccc(C(=O)C(F)(F)F)n2C(C)CN3C)cc1` (stereo not shown) [Compound 646], the IC50 is not above 2000 nM.

For `Cc1cc(C(=O)N2CCC3(CC2)c2ccc(C(F)(F)C(F)(F)F)n2CCN3C)ccc1C(C)(C)O` [Compound 647], the IC50 was not above 2000 nM.

As for `Cc1nc(C(=O)N2CCC3(CC2)c2ccc(Cl)n2CCN3C)ccc1OC(C)C` [Compound 648], the half-maximal inhibitory concentration (IC50) was not above 2000 nM.

For the compound `C[C@H]1Cn2c(C(=O)C(F)(F)F)ccc2C2(CCN(C(=O)c3ccc(S(=O)(=O)C(F)(F)F)cc3)CC2)N1C` [Compound 649], the IC50 is not above 2000 nM.

Take `COc1cc(C(=O)N2CCC3(CC2)c2ccc(Cl)n2CCN3C)ccc1OCCOC(F)(F)F` [Compound 650]: the IC50 is not above 2000 nM.

Regarding `CN(C)c1ncccc1C(=O)N1CCC2(CC1)c1ccc(C(F)(F)F)n1CCN2C` [Compound 652], the IC50 is more than 5000 nM.

As to `CC(=O)Nc1ccc(-c2ccc(C(=O)N3CCC4(CC3)c3ccc(C(=O)C(F)(F)F)n3CCN4C)cc2C)cn1` [Compound 653], the concentration for half-maximal inhibition (IC50) was 2000 to 5000 nM.

With `Cc1cc(C(=O)N2CCC3(CC2)c2ccc(C(=O)C(C)(C)C)n2CCN3C)ccc1S(=O)(=O)C(C)C` [Compound 654], the IC50 was not above 2000 nM.

In the case of `CC(C)Oc1ccc(C(=O)N2CCC3(CC2)NC(C)(C)Cn2c(C(F)(F)F)ccc23)cc1F` [Compound 655], the IC50 was not above 2000 nM.

As to `CC(C)Oc1ccc(C(=O)N2CCC3(CC2)c2ccc(C(=O)C4(C)CC4)n2CCN3C)cc1CO` [Compound 656], the IC50 was not above 2000 nM.

As to `Cc1cc(C(=O)N2CCC3(CC2)c2c(Cl)cc(C(F)(F)F)n2CCN3C)ncc1OC(C)C` [Compound 657], the IC50 was not above 2000 nM.

On to `Cc1cc(C(=O)N2CCC3(CC2)c2ccc(C(F)(F)F)n2CCN3C)ccc1C1COC1` [Compound 658], for which the IC50 is not above 2000 nM.

For orientation: IC50 means the point on the concentration scale where inhibition reaches its midpoint.
